Assay results reported in patent US12404232B2, “Compounds and compositions for intracellular delivery of therapeutic agents” (ModernaTX, Inc., priority 2015, dated 2025).

Columns and labels:
rats = assay: Residual lipid levels in liver and spleen of rats (UPLC-MS quantification); type: in vivo, rat; conditions: rats, 2 mpk, 48 h; assuming 300 g rat and 15 g liver
Experimental: At 48 h liver tissue was harvested for lipid quantification. To pre-weighed tissues, Milli-Q water was added (900 μL water per 100 mg tissue). Tissues were homogenized using an Omni probe homogenizer until uniform. 50 μL of samples and matrix calibration standards were aliquoted into a 96-well plate. 50 μL of blank matrix for matrix blanks and control blanks were aliquoted. 400 μL IS spiking solution were manually added to all samples except matrix blanks. 400 μL of 50:50 ACN:IPA were manually added to matrix blanks. The plate was covered and the samples vortexed and centrifuged for 5 minutes at >3000 rpm. 200 μL of the samples were transferred into a clean 96-well plate for analysis. Samples were analyzed on a Waters Acquity UPLC using a Higgins Analytical Clipeus C8 column ([…], 30×2.1 mm) and a gradient of either 70-95% or 60-95% (Mobile Phase A: 5 mM ammonium formate in 50:50:1 H2O:MeOH:formic acid; Mobile Phase B: 5 mM ammonium formate in 100:1 MeOH:formic acid) over 1.3 min at 1.2 mL/min (column temperature 55° C.). Detection was based on electrospray ionization (ESI) in positive mode using a Sciex API5500 Mass Spectrometer.
The expression of hEPO in rats intravenously administered a nanoparticle composition at a dose of 0.2 mpk or 2.0 mpk was measured at 6 hours. Table 16 summarize the ratio of hEPO expression levels using various nanoparticle compositions as compared to the hEPO expression level using MC3 formulation and the lipid levels in the liver measured 48 hours after administration, as described above. Tables 17 and 18 summarize the lipid levels in the liver and spleen measured 48 hours after administration of Compounds 28, 33, 53, and 54. Liver and spleen levels represent the average values calculated for 3 rats in each group. As is shown in Tables 17 and 18, less than 10% of Compounds 28, 33, 53, and 54 remained in the liver after 48 hours, while greater than 60% of MC3 remained.
Table 19 summarizes the hEPO expression, IP-10 induction, liver and spleen levels, and alanine aminotransferase (ALT) and aspartate aminotransferase (AST) measured upon intravenous administration of formulations including Compounds 48, 49, and 50 to rat at 0.2 and 2 mpk and hEPO mRNA. hEPO concentrations were measured 6 hours after administration, while cytokine induction and liver and spleen levels were measured 48 hours after administration. hEPO and IP-10 concentrations are presented in pg/ml, while liver levels are provided in ng/g. ALT and AST levels are presented in international units.
The expression of hEPO induced by intravenous administration to rats of nanoparticle compositions at various doses was measured at 2, 4, 6, 8, 24, and 48 hour time points. FIGS. 3-6 respectively summarize the hEPO expression measured upon intravenous administration of formulations including Compounds 26, 18, 25, and MC3 to rat at various doses. The lipid levels of Compound 26 in the liver after 48 hours were about 19%.
The expression of hEPO and lipid levels in the liver and spleen in rats intravenously administered a nanoparticle composition at a dose of 0.2 mpk was measured at various timepoints. Compounds 18 and 25 were selected for comparison with MC3. Lipids were formulated according to the standard MC3 formulation described above. Rats were administered intravenously a single 0.2 mpk dose and expression monitored at 0.25, 0.5, 1, 2, 4, 8, 24, and 48 hours after administration.

mice = assay: Luc expression (total flux) after intramuscular administration; type: in vivo; conditions: 6 hours after intramuscular administration, Luc mRNA and H10 mRNA
Experimental: The numbers 1-7 in this figure correspond to MC3, Compounds 168-170, and 173-175 respectively.
In order to monitor how effectively various nanoparticle compositions deliver therapeutic and/or prophylactics to targeted cells, different nanoparticle compositions including a particular therapeutic and/or prophylactic (for example, a modified or naturally occurring RNA such as an mRNA) are prepared and administered to rodent populations. Mice are intravenously, intramuscularly, intraarterially, or intratumorally administered a single dose including a nanoparticle composition with a formulation such as those provided in Example 3. In some instances, mice may be made to inhale doses. Dose sizes may range from 0.001 mg/kg to 10 mg/kg, where 10 mg/kg describes a dose including 10 mg of a therapeutic and/or prophylactic in a nanoparticle composition for each 1 kg of body mass of the mouse. A control composition including PBS may also be employed.
The total flux (measured by area under the curve, AUC) induced by administration of a formulation including a given lipid relative to that induced by administration of a formulation including MC3 was also measured for several lipids.
Sample formulations including both modified luciferase (Luc) mRNA and H10 mRNA were prepared and administered intramuscularly and the resulting expression and immunogenicity were evaluated simultaneously. Formulations including compounds according to Formula (I), (IA), (II), (IIa), (IIb), (IIc), (IId) or (IIe) were prepared and administered at doses of 0.001 and 0.01 mpk (e.g., doses of 0.0005 mpk of a formulation including Luc mRNA and a formulation including H10 mRNA or doses of 0.005 mpk of a formulation including Luc mRNA and a formulation including H10 mRNA).
Sample formulations including modified luciferase (Luc) mRNA prepared and administered intramuscularly and the resulting expression and immunogenicity were evaluated simultaneously. Formulations including compounds according to Formula (I), (IA), (II), (IIa), (IIb), (IIc), (IId) or (IIe) were prepared and administered at dose of […] 0.01 mpk.
The fluxes measured upon intravenous and intramuscular administration are compared in Table 6. Fluxes are presented as fold increase over that measured for MC3 formulations.

[1] = Encapsulation of RNA by the nanoparticle composition (QUANT-IT RIBOGREEN RNA assay); type: physicochemical; conditions: nanoparticle composition 50:10:38.5:1.5 mol % (Table 1A)
From the text: The efficiency of encapsulation of a therapeutic and/or prophylactic describes the amount of therapeutic and/or prophylactic that is encapsulated or otherwise associated with a nanoparticle composition after preparation, relative to the initial amount provided. The encapsulation efficiency is desirably high (e.g., close to 100%). The encapsulation efficiency may be measured, for example, by comparing the amount of therapeutic and/or prophylactic in a solution containing the nanoparticle composition before and after breaking up the nanoparticle composition with one or more organic solvents or detergents. Fluorescence may be used to measure the amount of free therapeutic and/or prophylactic (e.g., RNA) in a solution. For the nanoparticle compositions described herein, the encapsulation efficiency of a therapeutic and/or prophylactic may be at least 50%, for example 50%, 55%, 60%, 65%, 70%, 75%, 80%, 85%, 90%, 91%, 92%, 93%, 94%, 95%, 96%, 97%, 98%, 99%, or 100%. In some embodiments, the encapsulation efficiency may be at least 80%. In certain embodiments, the encapsulation efficiency may be at least 90%.
For nanoparticle compositions including an RNA, a QUANT-IT™ RIBOGREEN® RNA assay (Invitrogen Corporation Carlsbad, CA) can be used to evaluate the encapsulation of an RNA by the nanoparticle composition. The samples are diluted to a concentration of approximately […] in a TE buffer solution (10 mM Tris-HCl, 1 mM EDTA, pH 7.5). 50 μL of the diluted samples are transferred to a polystyrene 96 well plate and either 50 μL of TE buffer or 50 μL of a 2% Triton X-100 solution is added to the wells. The plate is incubated at a temperature of 37° C. for 15 minutes. The RIBOGREEN® reagent is diluted 1:100 in TE buffer, and 100 μL of this solution is added to each well. The fluorescence intensity can be measured using a fluorescence plate reader (Wallac Victor 1420 Multilablel Counter; Perkin Elmer, Waltham, MA) at an excitation wavelength of, for example, about 480 nm and an emission wavelength of, for example, about 520 nm. The fluorescence values of the reagent blank are subtracted from that of each of the samples and the percentage of free RNA is determined by dividing the fluorescence intensity of the intact sample (without addition of Triton X-100) by the fluorescence value of the disrupted sample (caused by the addition of Triton X-100).
(§1) Initial studies were performed to compare the delivery efficiency of nanoparticle compositions including various compounds according to Formula (I), (IA), (II), (IIa), (IIb), (IIc), (IId) or (IIe). The cationic lipid MC3 is a current standard in the art. Accordingly, the standard MC3 formulation including about 50 mol % MC3, about 10 mol % DSPC, about 38.5 mol % cholesterol, and about 1.5 mol % PEG-DMG was used as a basis for this study. Nanoparticle compositions including DSPC as a phospholipid, cholesterol as a structural lipid, PEG-DMG as a PEG lipid, an RNA, and a compound according to Formula (I), (IA), (II), (IIa), (IIb), (IIc), (IId) or (IIe) selected from Compounds 1-159, 168-170, and 173-175 were prepared according to or via methods similar to those described in Examples 1 and 2. The ratios of the lipids were 50:10:38.5:1.5 mol % for the lipid according to Formula (I), (IA), (II), (IIa), (IIb), (IIc), (IId) or (IIe):DSPC:cholesterol:PEG-DMG. The RNA used was an mRNA encoding G5 luciferase (Luc) or G5 hEPO. Tables 1A-1B summarize the content and characteristics of the formulations. […]

[2] = Particle size and polydispersity index of nanoparticle compositions (Zetasizer Nano ZS); type: physicochemical; conditions: for PDI: nanoparticle composition 50:10:38.5:1.5 mol % (Table 1A); for Size (nm): nanoparticle composition lipid:DSPC:cholesterol:PEG-DMG 50:10:38.5:1.5 mol %, mRNA encoding Luc or hEPO (Table 1A)
From the text: Nanoparticle compositions may be characterized by a variety of methods. For example, microscopy (e.g., transmission electron microscopy or scanning electron microscopy) may be used to examine the morphology and size distribution of a nanoparticle composition. Dynamic light scattering or potentiometry (e.g., potentiometric titrations) may be used to measure zeta potentials. Dynamic light scattering may also be utilized to determine particle sizes. Instruments such as the Zetasizer Nano ZS (Malvern Instruments Ltd, Malvern, Worcestershire, UK) may also be used to measure multiple characteristics of a nanoparticle composition, such as particle size, polydispersity index, and zeta potential.
A Zetasizer Nano ZS (Malvern Instruments Ltd, Malvern, Worcestershire, UK) can be used to determine the particle size, the polydispersity index (PDI) and the zeta potential of the nanoparticle compositions in 1×PBS in determining particle size and 15 mM PBS in determining zeta potential.
as §1

Row | SMILES | % Lipid Remaining in liver, 48 h* 2 mpk (rats) [%] | EE (%) [1] [%] | PDI [2] | Size (nm) [2] [nm] | Total flux (p/s) 0.001 mpk Dose (mice) [p/s] | Total flux (p/s) 0.01 mpk Dose (mice) [p/s]
1 | CCCCCCCCC(C)OC(=O)CCCCCCCN(CCO)CCCCCCCC(=O)OC(CCCCCCCC)CCCCCCCC (stereo not drawn) [Compound 48, decan-2-yl 8-((8-(heptadecan-9-yloxy)-8-oxooctyl)(2-hydroxyethyl)amino)octanoate] | 7.22 | – | – | – | 4.69E+05 | 8.78E+06
2 | CCCCCCCCC(CC)OC(=O)CCCCCCCN(CCO)CCCCCCCC(=O)OC(CCCCCCCC)CCCCCCCC (stereo not drawn) [Compound 49, heptadecan-9-yl 8-((2-hydroxyethyl)(8-oxo-8-(undecan-3-yloxy)octyl)amino)octanoate] | 12.6 | – | 0.110 | 73.1 | – | –
3 | CCCCCCCCCOC(=O)CCCN(CCO)CCCCCCCC(=O)OC(CCCCCCCC)CCCCCCCC [Compound 26, Heptadecan-9-yl 8-((2-hydroxyethyl)(4-(nonyloxy)-4-oxobutyl)amino)octanoate] | 20 | – | – | – | 3.90E+06 | 6.13E+07

The next lines start with results.

Row | % Lipid Remaining in liver, 48 h* 2 mpk (rats) [%] | EE (%) [1] [%] | PDI [2] | Size (nm) [2] [nm] | SMILES | Total flux (p/s) 0.001 mpk Dose (mice) [p/s] | Total flux (p/s) 0.01 mpk Dose (mice) [p/s]
4 | – | 94.35 | 0.1 | 80.7 | CCCCCCCCCOC(=O)CCCCCCCN(CCCCCCCC(=O)OC(CCCCCCCC)CCCCCCCC)CCCN/C(=N/C#N)N(C)C [Compound 168, Heptadecan-9-yl (Z)-8-((3-(2-cyano-3,3-dimethylguanidino)propyl)(8-(nonyloxy)-8-oxooctyl)amino)octanoate] | – | –
5 | – | 96.1 | 0.11 | 60.1 | CCCCCCCCC(CCCCCCCC)OC(=O)CCCCCCCN(CCO)CCCC(=O)OC(CCCCC)CCCCCCCC (stereo not drawn) [Compound 71, Heptadecan-9-yl 8-((2-hydroxyethyl)(4-oxo-4-(tetradecan-6-yloxy)butyl)amino)octanoate] | – | –
6 | 15.9 | – | – | – | CCCCCCCCC(CCC)OC(=O)CCCCCCCN(CCO)CCCCCCCC(=O)OC(CCCCCCCC)CCCCCCCC (stereo not drawn) [Compound 50, dodecan-4-yl 8-((8-(heptadecan-9-yloxy)-8-oxooctyl)(2-hydroxyethyl)amino)octanoate] | 6.56E+05 | 1.13E+07
